# Laboratory results from patent US20110129450A1, “METHOD OF PROMOTING NEUROGENESIS BY MODULATING SECRETASE ACTIVITIES” (priority 2008, published 2011).
# “Also recorded” adds a separate entry of the source.
# Experiments:
# [1] = test system: PS1; experiment: Immunoblot of PS1 expression in N2a cells transduced with lentiviral vector; format: cell-based, murine; settings: N2a cells five days following transduction, versus GFP only or irrelevant siRNA; FIG. 6A
# Description: PS1 siRNA lentiviruses were verified by immunoblot analysis for the reduction of PS1 protein expression in N2a cells transduced with the lentiviral vector. N2a cells were transduced with the purified shRNA vector preparation followed by immunoblot analysis using anti-PS1 polyclonal antibody (Lazarov et al., 2005, J. Neurosci. 25: 2386-95.). Presenilins undergo cleavage in an alpha helical region of one of the cytoplasmic loops to produce a larger N-terminal (“PS1 NTF”) and a smaller C-terminal fragment which together form part of the functional protein. […] PS1 siRNA 4-11 (lane 1) refers to a different PS1 siRNA construct having the siRNA sequence of 5′ GGACCAACTTGCATTCCAT 3′ (SEQ ID NO:18) under the U6 promoter. The samples in lanes 6 and 7 were brain extracts of transgenic mice harboring PS1HWT (wild type human PS1; lane 6) and PS1ΔE9 (human PS1 with exon 9 deleted; lane 7), both of which served as positive controls for PS1 detection.
# [2] = test system: sAPP; experiment: Immunoblot of sAPP in conditioned media of treated NSC (22C11 antibody); format: cell-based, mice; settings: NSC cultures, versus GM6001NK; FIG. 3B
# Description: APPWT CM represents proliferation results of GM6001-treated cells supplemented with APPWT-conditioned media. (B) Immunoblot analysis of sAPP levels in conditioned media from GM6001- and GM6001NK-treated NSC using the 22C11 antibody.
# Results were obtained as percentages of BrdU positive cells in GM6001-treated culture over BrdU positive cells in the control culture treated with DMSO (FIG. 3A). […] To examine the possibility that reduced proliferation was a result of reduced levels of sAPP, GM6001-treated cells were supplemented with conditioned media of neurospheres derived from APPWT mice, in which the α-secretase cleavage product sαAPP was present. […] The secretion levels of sAPP were also examined by immunoblot analysis in the conditioned media of GM6001- or GM6001NK-treated cells.
# [3] = test system: neurospheres derived from adult mice neural stem cells; experiment: Neurosphere diameter assay of singly dissociated adult NSCs plated for 8 days; format: cell-based; settings: FIG. 4
# Description: Both α- and β-secretases can cleave membrane-bound APP and release the secreted form of APP (sAPP). Proteolytic cleavage of APP by α-secretase releases one form of the secreted APP referred to as sαAPP, whereas cleavage of APP by β-secretase releases a C-terminally truncated sAPP referred to as sβAPP. The significance and difference in the functionality of these two forms of sAPP remains elusive. To distinguish the role of the α or β form of sAPP in promoting neural stem cell proliferation, neurospheres derived from adult mice neural stem cells were dissociated to single cells, plated for 8 days, treated with GM6001 or GM6001NK alone, treated with GM6001 and supplemented with conditioned media from neuroblastoma N2a cells expressing wild type APP, or treated with GM6001 and supplemented with conditioned media from 192 Swe N2a cells. Media conditioned by the neuroblastoma N2a was enriched in sαAPP as the wild type APP expressed in these cells was preferentially processed by α-secretase to produce sαAPP. The 192 Swe N2a conditioned medium was enriched in sβAPP as the 192 Swe N2a cells expressing the Swedish mutant form of APP that was preferentially cleaved by β-secretase. See Bogdanovic et al., 2001, Dement Geriatr. Congn. Discord. 12:364-70.
# [4] = test system: neural stem cells isolated from the SVZ of adult wild type mice; experiment: BrdU proliferation assay of neurosphere cultures treated with ADAM inhibitor; format: cell-based; settings: treated 48 hours, compared to inactive analog GM6001NK; FIG. 3A
# Method: The role for α-secretase in regulating proliferation of NSCs was examined. Neurosphere cultures were established from neural stem cells isolated from the SVZ of adult wild type mice. […] Thereafter, cells were pulse-labeled with 5 μM BrdU for 24 hours before fixation in 4% paraformaldehyde (PFA). The fixed cells were incubated with anti-BrdU antibodies and then HRP-conjugated secondary antibodies, followed by incubation with the TMD peroxidase substrate (Pierce Protein Research Products, Thermo Scientific, Rockford, Ill.). Signals were detected using a plate reader at 450-595 nm.
# [5] = test system: neural stem cells; experiment: Neural stem cell differentiation assay on poly-L-ornithine/laminin; format: cell-based, mice
# Method: The effects of γ-secretase inhibitor L-685,458 on neural stem cell differentiation was analyzed. Neural stem cells were allowed to differentiate when cultured on glass coverslips coated with 10 μg/mL poly-L-ornithine (Sigma, St. Louis, Mo.) and 5-10 μg/mL laminin (Sigma) in media with 5% fetal bovine serum without EGF and FGF.
# γ-secretase inhibitor L-685,458-induced differentiation was further analyzed by immunostaining using antibodies to the astrocyte marker GFAP, and the early neural marker nestin. […] Scale bar=[…] (FIG. 8E, representative GFAP staining is marked with single arrows).
# The length of the processes developed from the middle of the soma to the axon tip of GFAP positive cells after two days of L-685,458 treatment was analyzed and the results are shown in FIG. 8G. Twenty four hours after culturing whole neurospheres on laminin, vehicle-treated cultures remained mostly as neurospheres with slight cell differentiation (FIG. 8F, top panels).
# [6] = test system: neurospheres from the SVZ of adult mice; experiment: BrdU proliferation assay of neurospheres (γ-secretase inhibitor or lentiviral siRNA); format: cell-based; settings: 1 μM for 24 hours; FIG. 8A
# Method: To further establish that reduced expression of PS1 decreased neural stem cell proliferation and induced neural stem cell differentiation, neurospheres established as described above from the SVZ of adult mice were subject to a proliferation assay following the treatment with the γ-secretase inhibitor L-685,458 (1 μM for 24 hours) (Sigma, St. Louis, Mo.). As a comparison, neurospheres were transduced with lentiviral vectors expressing either IR siRNA or PS1 siRNA. The proliferation assay was performed as follows: lentivirally-transduced neurospheres or γ-secretase inhibitor-treated neurospheres were singly dissociated and cultured (10,000 cells/well) with BrdU for 48 hours. BrdU-labeled cells were fixed in 4% PFA and immunolabeled with anti-BrdU antibodies followed by HRP-conjugated secondary antibodies. Thereafter, the cells were incubated with the TMD peroxidase substrate and read on a plate reader at 450-595 nm. […] Results were presented as a percentage of DMSO-treated NSCs.
compound,measurement,setting,value
5′ GGACCAACTTGCATTCCAT 3′ (expressed or natural sequence) [PS1 siRNA 4-11],PS1 expression,[1],reduced
CNC(=O)[C@H](Cc1c[nH]c2ccccc12)NC(=O)[C@@H](CC(=O)NO)CC(C)C [GM6001],levels of secreted sAPP in conditioned media,[2],reduced
same,average diameter of neurospheres,[3],reduced the average diameter of neurospheres
same,BrdU immunoreactivity (BrdU positive cells relative to DMSO control),[4],Reduced BrdU immunoreactivity
"CC(C)C[C@H](NC(=O)[C@H](Cc1ccccc1)C[C@@H](O)[C@H](Cc1ccccc1)NC(=O)OC(C)(C)C)C(=O)N[C@@H](Cc1ccccc1)C(N)=O [L-685,458]",GFAP immunostaining,[5]; FIG. 8E,Positive staining of GFAP
same,neural progenitor cell differentiation,"[5]; differentiation medium, compared to DMSO, FIGS. 8B-8F",induced neural progenitor cell differentiation
same,immunostaining for β-tubulin and GFAP,"[5]; neurospheres on laminin, FIG. 8F",increased immunostaining for both β-tubulin and GFAP
same,differentiation of whole neurospheres cultured on laminin,"[5]; twenty four hours on laminin, FIG. 8F",extensive differentiation
same,number of differentiated cells,"[5]; two-day treatment, compared to control, FIG. 8C",increased number of differentiated cells
same,number of GFAP+Nestin+DCX+ cells,"[5]; two-day treatment, compared to control, FIG. 8H",dramatically decreased; also recorded: decrease
same,number of neurospheres formed from singly-dissociated neurosphere cells,"[5]; two-day treatment, compared with control, FIG. 8D",reduced number of neurospheres
same,BrdU+ immunoreactivity (percentage of DMSO-treated NSCs),[6],Reduced BrdU+ immunoreactivity; also recorded: reduced neural stem cell proliferation
